Here are results for 1 molecule from patent publication EP0140492B1 (WARNER-LAMBERT COMPANY, priority 1983, dated 1985).

Data set [1] in a line: Plasma levels of isoxicam and bioavailability parameters after a single oral dose to beagle dogs. Type of data set: in vivo. The settings on record: beagle, dog, in vivo, po; for Tmax: Tmax (hours). On the procedure:
The range for the individual animals was 51.4 to 63.0 µg/ml with three animals having a peak time of two hours and the final animal at eight hours. These plasma levels were considerably higher when compared to micronized isoxicam. […] Peak plasma concentrations for individual animals ranged from […] between three and six hours postdose.
Areas under the plasma concentrations versus time curve (AUC^0-∞) were calculated using the trapezoidal rule and extrapolated to infinity with the appropriate elimination rate constants.

The conditions of data set [2]: water and alcohol; cited from earlier work.
For data set [3] the following is noted: cited from earlier work.

`Cc1cc(NC(=O)C2=C(O)c3ccccc3S(=O)(=O)N2C)no1` [micronized isoxicam, 4 - hydroxy - 2 - methyl - N - (5 - methyl - 3 - isoxazolyl) - 2H - 1,2 - benzothiazine - 3 - carboxamide - 1,1 - dioxide, reference compound]: the AUC in data set [1] (100 mg, AUC^0-∞) turned out to be 808 µg·h/mL; in data set [1] (100 mg, mean AUC^0-∞), 808 ± 230 µg·h/mL. Also, the Cmax was 15400 ng/mL in data set [1] (100 mg, Cmax (µg/ml)) and 15400 ± 4200 ng/mL in data set [1] (100 mg, Mean Cmax). The half-life in data set [1] (100 mg, Half-life (hours)) is 2130 min; in data set [1] (100 mg, Mean half-lives (elimination, linear regression of semilogarithmic data)), 2130 ± 426 min; in data set [1] (Half-life (hours)) it was 1960 min. Also, the Tmax in data set [1] (100 mg) was 4.2 h; in data set [1] it was 6 h. Further, in data set [2], the solubility entry was “practically insoluble in water and alcohol”. Further, the pKa entry in data set [3] is recorded as “about 3.65”.

As a reminder, the AUC is concentration integrated over time. A higher AUC goes with high exposure. As a reminder, the Cmax is the highest concentration seen after dosing. As usually defined, the half-life is the time needed for the level to fall by half in the phase considered. The Tmax is the time from dosing to the highest level.
